Source: US20110190280A1, “Thiazole And Oxazole Kinase Inhibitors” (priority 2007, published 2011)

These molecules were tested on A375P tumor cells (assay: Cell growth inhibition assay (CellTiter-Glo), A375P). Details: Homo sapiens, 72 h, read-out: Activity in A375P Tumor Cells.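 Further: total ATP luminescence used as proxy for cell number, serial threefold compound dilutions at 0.2% DMSO, growth inhibition expressed versus DMSO vehicle-treated wells.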

SMILES	IC50 [nM]
CCNc1nc(-c2cc(OC)cc(OC)c2)c(-c2ccnc(Nc3ccc(N4CCN(CCF)CC4)nc3)n2)o1 [Example 112]	500 to 5000
CCNc1nc(-c2cc(OC)cc(OC)c2)c(-c2ccnc(Nc3ccc(N4CCN5CCCCC5C4)c(F)c3)n2)s1 (stereo not drawn) [Example 115]	500 to 5000
CCNc1nc(-c2cc(OC)cc(OC)c2)c(-c2ccnc(Nc3ccc(N4CCN(CCS(C)(=O)=O)CC4)c(F)c3)n2)o1 [Example 116]	500 to 5000
CCNc1nc(-c2cc(OC)cc(OC)c2)c(-c2ccnc(Nc3ccc(N4CCN(CCF)CC4)c(F)c3)n2)o1 [Example 117]	500 to 5000
CCNc1nc(-c2cc(OC)cc(OC)c2)c(-c2ccnc(Nc3ccc(N4CCN(CCOC)CC4)c(C(=O)O)c3)n2)o1 [Example 119]	500 to 5000
CCNc1nc(-c2cc(OC)cc(OC)c2)c(-c2ccnc(Nc3ccc(N4CCOCC4)nc3)n2)o1 [Example 120]	500 to 5000
CCNc1nc(-c2cc(C)cc(OC)c2)c(-c2ccnc(Nc3ccc(OC4CCN(CCS(C)(=O)=O)CC4)c(C)c3)n2)o1 [Example 125]	500 to 5000
CCNc1nc(-c2cc(C)cc(OC)c2)c(-c2ccnc(Nc3ccc(N4CCN(CCS(C)(=O)=O)CC4)c(F)c3)n2)o1 [Example 127]	500 to 5000
CCNc1nc(-c2cc(C)cc(OC)c2)c(-c2ccnc(Nc3ccc(N4CCN(CCF)CC4)c(F)c3)n2)o1 [Example 128]	500 to 5000
CCNc1nc(-c2cc(C)cc(OC)c2)c(-c2ccnc(Nc3cc(OC)c(OC4CCN(CCS(C)(=O)=O)CC4)c(OC)c3)n2)o1 [Example 131]	500 to 5000
CCNc1nc(-c2cc(OC)cc(OC)c2)c(-c2ccnc(Nc3cc(OC)c(OC4CCN(CCS(C)(=O)=O)CC4)c(OC)c3)n2)o1 [Example 133]	500 to 5000

The molecules below were run on Colo205 tumor cells (assay: Cell growth inhibition assay (CellTiter-Glo), Colo205). Details: Homo sapiens, COLO 205, 72 h, read-out: Activity in Colo205 Tumor Cells.
Protocol: Cell Growth Inhibition Assays Human colon tumor cells (Colo205) were cultured in RPMI (Mediatech 50-020-PB) containing 10% FBS and 1% penicillin-streptomycin. […] Human melanoma cancer cells (A375-F11S) were cultured in RPMI (Mediatech 50-020-PB) containing 10% FBS, 1% sodium pyruvate, and 1% penicillin-streptomycin. Human colon cancer cells (HT-29) were cultured in high glucose DMEM (Mediatech 50-013-PB) containing 10% FBS and 1% penicillin-streptomycin. Human melanoma cancer cells (SK-MEL-3) were cultured in McCoy's 5A (50-025-PB) containing 15% FBS, and 1% penicillin-streptomycin. All cell lines were maintained at 37° C. in a humidified 5% CO2, 95% air incubator.
The next day, compounds were diluted as follows: For 96-well assays, 13.5 μl of compound in DMSO were diluted using nine (9) serial 1:3 dilutions of 4.5 μl in 9 μl of DMSO. Medium (270 μl/well of RPMI with 10% FBS and 1% penicillin-streptomycin) was added to the plates. Aliquots (7 μl) were added to cells in the final assay giving a final DMSO concentration of 0.2%. For 384-well assays, 15 μl of compound in DMSO were diluted using nine (9) serial 1:3 dilutions of 5 μl in 10 μl of DMSO, followed by a further dilution of 5 μl of compound with 95 μl of medium, of which 2 μl are added to cells in the final assay giving a final DMSO concentration of 0.2%. Cells were incubated at 37° C., 5% CO2 for 3 days.
Total ATP was measured (as a surrogate estimate of cell number) using CellTiter-Glo® (Promega G7571) reagent. Briefly, plates were removed from the incubator and allowed to equilibrate to room temperature for 30 minutes. CellTiter-Glo® (25 μl or 55 μl for 384-well or 96-well assays, respectively) reagent was added to each well and plates were shaken on an orbital plate shaker for 2 minutes. Plates were incubated without shaking for a further 30 minutes and read on an LJL Analyst GT reader in luminometer mode with an integration time of 0.5 seconds per well. Percent inhibition of cell growth was calculated relative to DMSO vehicle-treated control wells.

SMILES	IC50 [nM]
CCNc1nc(-c2cc(OC)cc(OC)c2)c(-c2ccnc(Nc3ccc(N4CCN(CCF)CC4)nc3)n2)o1 [Example 112]	< 500
CCNc1nc(-c2cc(OC)cc(OC)c2)c(-c2ccnc(Nc3ccc(N4CCN5CCCCC5C4)c(F)c3)n2)s1 (stereo not drawn) [Example 115]	< 500
CCNc1nc(-c2cc(OC)cc(OC)c2)c(-c2ccnc(Nc3ccc(N4CCN(CCS(C)(=O)=O)CC4)c(F)c3)n2)o1 [Example 116]	< 500
CCNc1nc(-c2cc(OC)cc(OC)c2)c(-c2ccnc(Nc3ccc(N4CCN(CCF)CC4)c(F)c3)n2)o1 [Example 117]	< 500
CCNc1nc(-c2cc(OC)cc(OC)c2)c(-c2ccnc(Nc3ccc(N4CCN(CCOC)CC4)c(C(=O)O)c3)n2)o1 [Example 119]	500 to 5000
CCNc1nc(-c2cc(OC)cc(OC)c2)c(-c2ccnc(Nc3ccc(N4CCOCC4)nc3)n2)o1 [Example 120]	< 500
CCNc1nc(-c2cc(C)cc(OC)c2)c(-c2ccnc(Nc3ccc(OC4CCN(CCS(C)(=O)=O)CC4)c(C)c3)n2)o1 [Example 125]	500 to 5000
CCNc1nc(-c2cc(C)cc(OC)c2)c(-c2ccnc(Nc3ccc(N4CCN(CCS(C)(=O)=O)CC4)c(F)c3)n2)o1 [Example 127]	< 500
CCNc1nc(-c2cc(C)cc(OC)c2)c(-c2ccnc(Nc3ccc(N4CCN(CCF)CC4)c(F)c3)n2)o1 [Example 128]	< 500
CCNc1nc(-c2cc(C)cc(OC)c2)c(-c2ccnc(Nc3cc(OC)c(OC4CCN(CCS(C)(=O)=O)CC4)c(OC)c3)n2)o1 [Example 131]	< 500
CCNc1nc(-c2cc(OC)cc(OC)c2)c(-c2ccnc(Nc3cc(OC)c(OC4CCN(CCS(C)(=O)=O)CC4)c(OC)c3)n2)o1 [Example 133]	< 500

These molecules were tested on SK-MEL-28 tumor cells (assay: Cell growth inhibition assay (CellTiter-Glo), SK-MEL-28). Details: Homo sapiens, SK-MEL-28, 72 h, read-out: Activity in SK-MEL-28 Tumor Cells.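 Further: luminescent total ATP as a proxy for cell number, threefold serial dilutions at 0.2% DMSO, percent growth inhibition versus DMSO vehicle control wells.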

SMILES	IC50 [nM]
CCNc1nc(-c2cc(OC)cc(OC)c2)c(-c2ccnc(Nc3ccc(N4CCN(CCF)CC4)nc3)n2)o1 [Example 112]	500 to 5000
CCNc1nc(-c2cc(OC)cc(OC)c2)c(-c2ccnc(Nc3ccc(N4CCN5CCCCC5C4)c(F)c3)n2)s1 (stereo not drawn) [Example 115]	500 to 5000
CCNc1nc(-c2cc(OC)cc(OC)c2)c(-c2ccnc(Nc3ccc(N4CCN(CCS(C)(=O)=O)CC4)c(F)c3)n2)o1 [Example 116]	500 to 5000
CCNc1nc(-c2cc(OC)cc(OC)c2)c(-c2ccnc(Nc3ccc(N4CCN(CCF)CC4)c(F)c3)n2)o1 [Example 117]	500 to 5000
CCNc1nc(-c2cc(OC)cc(OC)c2)c(-c2ccnc(Nc3ccc(N4CCN(CCOC)CC4)c(C(=O)O)c3)n2)o1 [Example 119]	500 to 5000
CCNc1nc(-c2cc(OC)cc(OC)c2)c(-c2ccnc(Nc3ccc(N4CCOCC4)nc3)n2)o1 [Example 120]	500 to 5000
CCNc1nc(-c2cc(C)cc(OC)c2)c(-c2ccnc(Nc3ccc(OC4CCN(CCS(C)(=O)=O)CC4)c(C)c3)n2)o1 [Example 125]	500 to 5000
CCNc1nc(-c2cc(C)cc(OC)c2)c(-c2ccnc(Nc3ccc(N4CCN(CCS(C)(=O)=O)CC4)c(F)c3)n2)o1 [Example 127]	< 500
CCNc1nc(-c2cc(C)cc(OC)c2)c(-c2ccnc(Nc3ccc(N4CCN(CCF)CC4)c(F)c3)n2)o1 [Example 128]	500 to 5000
CCNc1nc(-c2cc(C)cc(OC)c2)c(-c2ccnc(Nc3cc(OC)c(OC4CCN(CCS(C)(=O)=O)CC4)c(OC)c3)n2)o1 [Example 131]	500 to 5000
CCNc1nc(-c2cc(OC)cc(OC)c2)c(-c2ccnc(Nc3cc(OC)c(OC4CCN(CCS(C)(=O)=O)CC4)c(OC)c3)n2)o1 [Example 133]	500 to 5000

Each molecule was assayed on SK-MEL-3 tumor cells (assay: Cell growth inhibition assay (CellTiter-Glo), SK-MEL-3). Details: Homo sapiens, SK-MEL3, 72 h, read-out: Activity in SK-MEL-3 Tumor Cells.

SMILES	IC50 [nM]
CCNc1nc(-c2cc(OC)cc(OC)c2)c(-c2ccnc(Nc3ccc(N4CCN(CCF)CC4)nc3)n2)o1 [Example 112]	500 to 5000
CCNc1nc(-c2cc(OC)cc(OC)c2)c(-c2ccnc(Nc3ccc(N4CCN5CCCCC5C4)c(F)c3)n2)s1 (stereo not drawn) [Example 115]	< 500
CCNc1nc(-c2cc(OC)cc(OC)c2)c(-c2ccnc(Nc3ccc(N4CCN(CCS(C)(=O)=O)CC4)c(F)c3)n2)o1 [Example 116]	< 500
CCNc1nc(-c2cc(OC)cc(OC)c2)c(-c2ccnc(Nc3ccc(N4CCN(CCF)CC4)c(F)c3)n2)o1 [Example 117]	500 to 5000
CCNc1nc(-c2cc(OC)cc(OC)c2)c(-c2ccnc(Nc3ccc(N4CCN(CCOC)CC4)c(C(=O)O)c3)n2)o1 [Example 119]	500 to 5000
CCNc1nc(-c2cc(OC)cc(OC)c2)c(-c2ccnc(Nc3ccc(N4CCOCC4)nc3)n2)o1 [Example 120]	500 to 5000
CCNc1nc(-c2cc(C)cc(OC)c2)c(-c2ccnc(Nc3ccc(OC4CCN(CCS(C)(=O)=O)CC4)c(C)c3)n2)o1 [Example 125]	500 to 5000
CCNc1nc(-c2cc(C)cc(OC)c2)c(-c2ccnc(Nc3ccc(N4CCN(CCS(C)(=O)=O)CC4)c(F)c3)n2)o1 [Example 127]	< 500
CCNc1nc(-c2cc(C)cc(OC)c2)c(-c2ccnc(Nc3ccc(N4CCN(CCF)CC4)c(F)c3)n2)o1 [Example 128]	500 to 5000
CCNc1nc(-c2cc(C)cc(OC)c2)c(-c2ccnc(Nc3cc(OC)c(OC4CCN(CCS(C)(=O)=O)CC4)c(OC)c3)n2)o1 [Example 131]	< 500
CCNc1nc(-c2cc(OC)cc(OC)c2)c(-c2ccnc(Nc3cc(OC)c(OC4CCN(CCS(C)(=O)=O)CC4)c(OC)c3)n2)o1 [Example 133]	500 to 5000

These molecules were tested on HT-29 tumor cells (assay: Cell growth inhibition assay (CellTiter-Glo), HT-29). Details: Homo sapiens, HT-29, 72 h, read-out: Activity in HT-29 Tumor Cells.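 Further: ATP content read by luminescence as proxy for cell number, growth inhibition versus DMSO vehicle wells, 0.2% DMSO final, nine serial threefold compound dilutions.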

SMILES	IC50 [nM]
CCNc1nc(-c2cc(OC)cc(OC)c2)c(-c2ccnc(Nc3ccc(N4CCN(CCF)CC4)nc3)n2)o1 [Example 112]	500 to 5000
CCNc1nc(-c2cc(OC)cc(OC)c2)c(-c2ccnc(Nc3ccc(N4CCN5CCCCC5C4)c(F)c3)n2)s1 (stereo not drawn) [Example 115]	< 500
CCNc1nc(-c2cc(OC)cc(OC)c2)c(-c2ccnc(Nc3ccc(N4CCN(CCS(C)(=O)=O)CC4)c(F)c3)n2)o1 [Example 116]	500 to 5000
CCNc1nc(-c2cc(OC)cc(OC)c2)c(-c2ccnc(Nc3ccc(N4CCN(CCF)CC4)c(F)c3)n2)o1 [Example 117]	500 to 5000
CCNc1nc(-c2cc(OC)cc(OC)c2)c(-c2ccnc(Nc3ccc(N4CCN(CCOC)CC4)c(C(=O)O)c3)n2)o1 [Example 119]	500 to 5000
CCNc1nc(-c2cc(OC)cc(OC)c2)c(-c2ccnc(Nc3ccc(N4CCOCC4)nc3)n2)o1 [Example 120]	500 to 5000
CCNc1nc(-c2cc(C)cc(OC)c2)c(-c2ccnc(Nc3ccc(OC4CCN(CCS(C)(=O)=O)CC4)c(C)c3)n2)o1 [Example 125]	500 to 5000
CCNc1nc(-c2cc(C)cc(OC)c2)c(-c2ccnc(Nc3ccc(N4CCN(CCS(C)(=O)=O)CC4)c(F)c3)n2)o1 [Example 127]	< 500
CCNc1nc(-c2cc(C)cc(OC)c2)c(-c2ccnc(Nc3ccc(N4CCN(CCF)CC4)c(F)c3)n2)o1 [Example 128]	500 to 5000
CCNc1nc(-c2cc(C)cc(OC)c2)c(-c2ccnc(Nc3cc(OC)c(OC4CCN(CCS(C)(=O)=O)CC4)c(OC)c3)n2)o1 [Example 131]	500 to 5000
CCNc1nc(-c2cc(OC)cc(OC)c2)c(-c2ccnc(Nc3cc(OC)c(OC4CCN(CCS(C)(=O)=O)CC4)c(OC)c3)n2)o1 [Example 133]	500 to 5000

The molecules below were run against B-Raf (Homo sapiens, UniProt P15056) (assay: B-Raf Accelerated MEK ATPase assay (BRAMA)). Details: not given.
Type: biochemical
Procedure, shortened: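 B-Raf activity read as intrinsic MEK ATPase: catalytic activated RAF with non-phosphorylated MEK drives ADP formation, coupled through pyruvate kinase and lactate dehydrogenase to NADH oxidation, independent of ERK phosphorylation.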

SMILES	IC50 [nM]
CCNc1nc(-c2cc(C)cc(OC)c2)c(-c2ccnc(Nc3ccc(N4CCN(CCF)CC4)c(F)c3)n2)o1 [Example 128]	< 100

Same assay, conditions: BRAMA enzyme assay; class by pIC50; read-out: B-Raf Activity

SMILES	IC50 [nM]
CCNc1nc(-c2cc(OC)cc(OC)c2)c(-c2ccnc(Nc3ccc(N4CCN(CCF)CC4)nc3)n2)o1 [Example 112]	< 100
CCNc1nc(-c2cc(OC)cc(OC)c2)c(-c2ccnc(Nc3ccc(N4CCN5CCCCC5C4)c(F)c3)n2)s1 (stereo not drawn) [Example 115]	< 100
CCNc1nc(-c2cc(OC)cc(OC)c2)c(-c2ccnc(Nc3ccc(N4CCN(CCS(C)(=O)=O)CC4)c(F)c3)n2)o1 [Example 116]	< 100
CCNc1nc(-c2cc(OC)cc(OC)c2)c(-c2ccnc(Nc3ccc(N4CCN(CCF)CC4)c(F)c3)n2)o1 [Example 117]	< 100
CCNc1nc(-c2cc(OC)cc(OC)c2)c(-c2ccnc(Nc3ccc(N4CCN(CCOC)CC4)c(C(=O)O)c3)n2)o1 [Example 119]	< 100
CCNc1nc(-c2cc(OC)cc(OC)c2)c(-c2ccnc(Nc3ccc(N4CCOCC4)nc3)n2)o1 [Example 120]	< 100
CCNc1nc(-c2cc(C)cc(OC)c2)c(-c2ccnc(Nc3ccc(OC4CCN(CCS(C)(=O)=O)CC4)c(C)c3)n2)o1 [Example 125]	< 100
CCNc1nc(-c2cc(C)cc(OC)c2)c(-c2ccnc(Nc3ccc(N4CCN(CCS(C)(=O)=O)CC4)c(F)c3)n2)o1 [Example 127]	< 100
CCNc1nc(-c2cc(C)cc(OC)c2)c(-c2ccnc(Nc3cc(OC)c(OC4CCN(CCS(C)(=O)=O)CC4)c(OC)c3)n2)o1 [Example 131]	< 100
CCNc1nc(-c2cc(OC)cc(OC)c2)c(-c2ccnc(Nc3cc(OC)c(OC4CCN(CCS(C)(=O)=O)CC4)c(OC)c3)n2)o1 [Example 133]	< 100
